The results in this text go back to ChEMBL document CHEMBL4152280, “Binding mechanism investigations guiding the synthesis of novel condensed 1,4-dihydropyridine derivatives with L-/T-type calcium channel blocking activity” (Eur J Med Chem, 2018).

Molecules are shown by their SMILES. Calls of active or inactive are those of the source. No cut-off for these calls is given here. Some results are limits rather than exact numbers.

Chain of Cav1.2 (voltage-dependent L-type calcium channel subunit alpha-1C) (P22002 whole entry): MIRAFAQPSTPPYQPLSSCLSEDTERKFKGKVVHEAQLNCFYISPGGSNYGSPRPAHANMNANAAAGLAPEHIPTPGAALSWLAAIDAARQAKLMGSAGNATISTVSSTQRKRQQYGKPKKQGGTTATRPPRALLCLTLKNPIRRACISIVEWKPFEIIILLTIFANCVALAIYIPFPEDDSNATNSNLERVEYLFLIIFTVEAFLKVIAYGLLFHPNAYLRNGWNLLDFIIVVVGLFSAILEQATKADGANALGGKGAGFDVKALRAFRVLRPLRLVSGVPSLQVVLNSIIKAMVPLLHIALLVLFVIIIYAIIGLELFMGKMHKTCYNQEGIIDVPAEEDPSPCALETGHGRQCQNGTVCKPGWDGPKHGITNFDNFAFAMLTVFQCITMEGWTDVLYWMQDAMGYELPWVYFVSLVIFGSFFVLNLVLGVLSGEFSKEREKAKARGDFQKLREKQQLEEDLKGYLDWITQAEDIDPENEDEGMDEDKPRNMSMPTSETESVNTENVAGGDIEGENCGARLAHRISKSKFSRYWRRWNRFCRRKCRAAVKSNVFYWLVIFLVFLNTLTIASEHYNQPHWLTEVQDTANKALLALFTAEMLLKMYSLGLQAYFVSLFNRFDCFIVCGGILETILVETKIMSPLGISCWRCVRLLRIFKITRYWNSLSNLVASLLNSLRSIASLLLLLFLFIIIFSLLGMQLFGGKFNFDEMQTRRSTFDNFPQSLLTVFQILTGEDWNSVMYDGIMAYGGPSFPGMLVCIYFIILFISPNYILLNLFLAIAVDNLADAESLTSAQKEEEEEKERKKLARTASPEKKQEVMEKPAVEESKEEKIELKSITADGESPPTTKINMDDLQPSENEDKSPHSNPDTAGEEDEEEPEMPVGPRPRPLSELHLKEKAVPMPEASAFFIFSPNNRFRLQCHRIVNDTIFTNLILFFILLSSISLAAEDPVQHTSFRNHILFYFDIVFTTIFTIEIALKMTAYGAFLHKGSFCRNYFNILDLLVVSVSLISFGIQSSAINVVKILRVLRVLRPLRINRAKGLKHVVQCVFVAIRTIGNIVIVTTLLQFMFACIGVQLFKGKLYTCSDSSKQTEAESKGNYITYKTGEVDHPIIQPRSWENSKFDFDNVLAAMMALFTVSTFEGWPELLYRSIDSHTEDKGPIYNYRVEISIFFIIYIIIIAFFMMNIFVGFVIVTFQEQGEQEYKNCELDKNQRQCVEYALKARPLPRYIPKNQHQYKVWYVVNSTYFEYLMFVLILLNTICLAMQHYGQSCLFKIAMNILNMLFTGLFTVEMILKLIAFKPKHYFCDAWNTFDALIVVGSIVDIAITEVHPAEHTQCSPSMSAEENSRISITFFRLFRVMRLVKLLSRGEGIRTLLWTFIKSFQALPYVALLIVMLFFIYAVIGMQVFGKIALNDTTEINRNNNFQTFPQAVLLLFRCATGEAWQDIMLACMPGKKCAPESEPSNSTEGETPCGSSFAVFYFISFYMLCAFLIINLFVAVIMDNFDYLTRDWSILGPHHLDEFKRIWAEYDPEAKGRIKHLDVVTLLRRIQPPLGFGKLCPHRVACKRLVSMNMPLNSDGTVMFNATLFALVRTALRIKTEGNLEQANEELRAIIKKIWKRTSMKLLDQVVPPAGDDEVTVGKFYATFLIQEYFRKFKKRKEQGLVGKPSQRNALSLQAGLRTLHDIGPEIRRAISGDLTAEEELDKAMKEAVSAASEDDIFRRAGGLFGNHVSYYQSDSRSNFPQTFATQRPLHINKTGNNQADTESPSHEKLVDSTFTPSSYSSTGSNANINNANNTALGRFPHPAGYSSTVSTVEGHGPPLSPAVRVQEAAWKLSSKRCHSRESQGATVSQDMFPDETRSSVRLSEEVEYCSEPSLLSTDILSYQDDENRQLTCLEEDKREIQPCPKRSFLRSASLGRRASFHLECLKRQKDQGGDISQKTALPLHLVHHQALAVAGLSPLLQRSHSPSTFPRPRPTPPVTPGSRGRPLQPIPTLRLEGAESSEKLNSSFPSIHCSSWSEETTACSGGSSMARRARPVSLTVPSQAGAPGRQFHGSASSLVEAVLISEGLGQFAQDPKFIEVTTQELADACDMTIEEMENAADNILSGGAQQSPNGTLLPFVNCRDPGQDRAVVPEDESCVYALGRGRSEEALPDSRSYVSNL
Chain of Voltage-dependent T-type calcium channel subunit alpha-1H (Homo sapiens) (O95180 whole entry): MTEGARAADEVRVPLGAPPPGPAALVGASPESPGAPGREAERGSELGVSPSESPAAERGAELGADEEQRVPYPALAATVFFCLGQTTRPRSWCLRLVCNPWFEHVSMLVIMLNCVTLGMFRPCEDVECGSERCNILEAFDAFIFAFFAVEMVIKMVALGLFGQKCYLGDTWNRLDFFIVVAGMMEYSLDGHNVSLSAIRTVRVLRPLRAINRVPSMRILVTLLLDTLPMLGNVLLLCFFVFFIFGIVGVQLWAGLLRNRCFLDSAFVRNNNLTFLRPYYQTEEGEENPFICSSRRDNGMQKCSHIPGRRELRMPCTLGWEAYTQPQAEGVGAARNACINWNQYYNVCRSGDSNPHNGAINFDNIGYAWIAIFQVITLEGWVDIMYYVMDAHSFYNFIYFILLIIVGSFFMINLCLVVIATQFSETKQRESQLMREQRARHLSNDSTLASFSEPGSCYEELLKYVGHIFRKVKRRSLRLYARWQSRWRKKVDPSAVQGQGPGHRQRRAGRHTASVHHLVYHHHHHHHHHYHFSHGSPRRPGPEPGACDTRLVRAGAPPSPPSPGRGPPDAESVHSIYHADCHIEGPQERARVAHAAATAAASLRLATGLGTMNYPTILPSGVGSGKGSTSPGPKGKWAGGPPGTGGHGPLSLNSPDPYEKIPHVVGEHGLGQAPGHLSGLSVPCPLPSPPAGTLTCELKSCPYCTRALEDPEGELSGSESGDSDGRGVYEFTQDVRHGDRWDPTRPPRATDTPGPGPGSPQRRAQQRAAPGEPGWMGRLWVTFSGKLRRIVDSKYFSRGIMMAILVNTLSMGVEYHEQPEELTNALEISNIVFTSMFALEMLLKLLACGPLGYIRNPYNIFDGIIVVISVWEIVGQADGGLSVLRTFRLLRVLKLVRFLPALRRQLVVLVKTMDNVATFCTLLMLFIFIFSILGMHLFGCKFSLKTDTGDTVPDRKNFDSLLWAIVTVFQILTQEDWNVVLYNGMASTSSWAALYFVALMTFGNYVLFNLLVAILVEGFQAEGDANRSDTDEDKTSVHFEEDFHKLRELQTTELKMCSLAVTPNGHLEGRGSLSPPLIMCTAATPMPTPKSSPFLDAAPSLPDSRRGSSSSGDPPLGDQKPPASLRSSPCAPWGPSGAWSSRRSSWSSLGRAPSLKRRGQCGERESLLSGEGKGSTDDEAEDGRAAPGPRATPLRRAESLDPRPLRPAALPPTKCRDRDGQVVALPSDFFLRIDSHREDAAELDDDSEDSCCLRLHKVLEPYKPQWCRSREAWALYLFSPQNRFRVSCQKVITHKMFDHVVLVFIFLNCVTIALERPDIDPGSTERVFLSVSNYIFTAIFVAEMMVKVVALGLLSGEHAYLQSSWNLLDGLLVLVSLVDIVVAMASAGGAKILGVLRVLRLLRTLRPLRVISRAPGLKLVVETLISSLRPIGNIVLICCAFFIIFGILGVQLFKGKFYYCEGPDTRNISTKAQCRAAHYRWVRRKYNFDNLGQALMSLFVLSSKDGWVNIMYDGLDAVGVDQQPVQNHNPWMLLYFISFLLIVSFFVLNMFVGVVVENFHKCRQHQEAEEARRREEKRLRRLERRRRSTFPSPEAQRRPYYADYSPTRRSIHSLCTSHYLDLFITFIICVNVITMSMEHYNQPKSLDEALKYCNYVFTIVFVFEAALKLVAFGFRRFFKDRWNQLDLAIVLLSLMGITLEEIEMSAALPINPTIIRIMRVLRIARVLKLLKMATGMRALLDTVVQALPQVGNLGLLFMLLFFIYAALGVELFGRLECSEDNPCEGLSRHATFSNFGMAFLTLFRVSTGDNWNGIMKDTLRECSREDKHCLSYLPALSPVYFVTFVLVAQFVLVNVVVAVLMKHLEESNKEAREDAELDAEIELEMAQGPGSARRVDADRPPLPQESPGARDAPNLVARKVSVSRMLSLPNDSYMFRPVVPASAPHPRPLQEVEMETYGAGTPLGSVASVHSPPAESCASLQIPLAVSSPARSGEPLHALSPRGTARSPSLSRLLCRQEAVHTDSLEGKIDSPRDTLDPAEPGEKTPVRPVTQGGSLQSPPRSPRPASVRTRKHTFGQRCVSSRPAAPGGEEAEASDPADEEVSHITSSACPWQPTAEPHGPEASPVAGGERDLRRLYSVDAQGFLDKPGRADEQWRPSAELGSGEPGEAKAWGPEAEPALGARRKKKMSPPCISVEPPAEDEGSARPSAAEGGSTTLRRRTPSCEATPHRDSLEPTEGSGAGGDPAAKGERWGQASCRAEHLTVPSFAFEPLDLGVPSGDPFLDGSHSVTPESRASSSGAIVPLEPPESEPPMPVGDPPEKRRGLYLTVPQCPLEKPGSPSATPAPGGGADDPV

One data set has as its target Voltage-dependent T-type calcium channel subunit alpha-1H (Homo sapiens) (UniProt O95180). Briefly: Inhibition of human Cav3.2 at 10 uM at -110 mV holding potential by patch clamp electrophysiology assay. A general note: The patch-clamp technique gives a direct electrical read-out from membranes.
Take `CCOC(=O)C1=C(C)NC2=C(C(=O)C(C)(C)CC2)C1c1cc(Br)cc([N+](=O)[O-])c1O` (centres undefined): the inhibition (in general, how much of the control response was suppressed) is “Active”.
Still for that read-out and setting: under `CC1=C(C(=O)OCC(C)C)C(c2ccc(O)c(C(F)(F)F)c2)C2=C(CCC(C)(C)C2=O)N1` (centres undefined) stands “Active”.
Consider `CCOC(=O)C1=C(C)NC2=C(C(=O)C(C)(C)CC2)C1c1ccc(O)c(C(F)(F)F)c1` (centres undefined), for which the inhibition result was “Active”.
On the same count and under the same terms, under `CC1=C(C(=O)OCC(C)C)C(c2cc([N+](=O)[O-])cc([N+](=O)[O-])c2O)C2=C(CCC(C)(C)C2=O)N1` (centres undefined) stands “Active”.

Another data set has as its target Cav1.2 (voltage-dependent L-type calcium channel subunit alpha-1C) (Rattus norvegicus, UniProt P22002). Briefly: Inhibition of rat Cav1.2 at 10 uM at -90 mV holding potential by patch clamp electrophysiology assay relative to control.
With `CC1=C(C(=O)OCC(C)C)C(c2cc([N+](=O)[O-])ccc2O)C2=C(CC(C)(C)CC2=O)N1` (centres undefined), the inhibition at 10 µM was found to be 30%.
`CCOC(=O)C1=C(C)NC2=C(C(=O)C(C)(C)CC2)C1c1cc(Br)cc([N+](=O)[O-])c1O` (centres undefined): the inhibition at 10 µM came out at 50%.
On to `CC1=C(C(=O)OCC(C)C)C(c2cc([N+](=O)[O-])cc(Br)c2O)C2=C(CC(C)(C)CC2=O)N1` (centres undefined), for which the inhibition at 10 µM stood at 70%.
As for `CC1=C(C(=O)OCc2ccccc2)C(c2cc([N+](=O)[O-])ccc2O)C2=C(CCC(C)(C)C2=O)N1` (centres undefined), the inhibition at 10 µM is 70%.
In the case of `CC1=C(C(=O)OC(C)(C)C)C(c2cc([N+](=O)[O-])ccc2O)C2=C(CCC(C)(C)C2=O)N1` (centres undefined), the inhibition at 10 µM is less than 30%.
The same measure, in the same setting: under `COC(=O)C1=C(C)NC2=C(C(=O)C(C)(C)CC2)C1c1cc([N+](=O)[O-])ccc1O` (centres undefined) stands less than 30%.
Same read-out and setting: under `CC1=C(C(=O)OCC(C)C)C(c2cc(Br)cc([N+](=O)[O-])c2O)C2=C(CCC(C)(C)C2=O)N1` (centres undefined) stands 10%; under `CC1=C(C(=O)OCC(C)C)C(c2cc([N+](=O)[O-])cc(Br)c2O)C2=C(CCC(C)(C)C2=O)N1` (centres undefined), 15%.
Regarding `CC1=C(C(=O)OCC(C)C)C(c2cc([N+](=O)[O-])ccc2O)C2=C(CCC(C)(C)C2=O)N1` (centres undefined), the inhibition at 10 µM was determined as 70%.
On the same count and under the same terms, under `CCOC(=O)C1=C(C)NC2=C(C(=O)C(C)(C)CC2)C1c1cc([N+](=O)[O-])ccc1O` (centres undefined) stands 70%.
